The target of assay [1] is T1, catalytic domain of human collagenase 3 (MMP-13) (Homo sapiens, UniProt P45452).
T1 construct: Determining the enzyme activity of the catalytic domain of human collagenase 3 (MMP-13); purchased INVITEK, Berlin 30 100 803
Nature of the assay: Enzyme activity of the catalytic domain of human collagenase 3 (MMP-13), fluorogenic substrate. The assay is classed as biochemical. The conditions noted are these: determined graphically from % inhibition, read-out: IC50 MMP13. As for the experimental part: Determining the enzyme activity of the catalytic domain of human collagenase 3 (MMP-13).
Activating the proenzyme:
2 parts by volume of proenzyme are incubated with 1 part by volume of APMA solution at 37° C. for 1.5 hours. The APMA solution is prepared from a 10 mmol/l solution of p-aminophenylmercuric acetate in […] by diluting with 3 parts by volume of tris/HCl buffer, pH 7.5 (see below). The pH is adjusted to between 7.0 and 7.5 by adding 1 mmol/I HCl. After the enzyme has been activated, it is diluted to a concentration of 1.67 μg/ml using the tris/HCl buffer.
In order to measure the enzyme activity, 10 μl of enzyme solution are incubated for 15 minutes with 10 μl of a 3% (v/v) buffered solution of dimethyl sulfoxide (reaction 1). In order to measure the enzyme inhibitor activity, 10 μl of enzyme solution are incubated with 10 μl of a 3% (v/v) buffered solution of dimethyl sulfoxide containing the enzyme inhibitor (reaction 2).
In the case of both reaction 1 and reaction 2, the enzyme reaction is monitored by fluorescence spectroscopy (328 nm (extinction)/393 nm (emission)) after adding 10 μl of a 3% (v/v) aqueous solution of dimethyl sulfoxide containing 0.75 mmol of the substrate/l.
The enzyme activity is depicted as increase in extinction/minute.
The effect of the inhibitor is calculated as a percentage inhibition using the following formula: % inhibition=100−[(increase in extinction/minute in reaction 2)/(increase in extinction/minute in reaction 1)×100].
The IC50, i.e., the inhibitor concentration that is required for inhibiting the enzyme activity by 50%, is determined graphically by plotting the percentage inhibitions at different inhibitor concentrations.
The buffer solution contains 0.05% Brij (Sigma, Deisenhofen, Germany) and 0.1 mol of tris/HCl/l, 0.1 mol of NaCl/l and 0.01 mol of CaCl2/l (pH=7.5). The enzyme solution contains 1.67 μg of the enzyme domain/ml. The substrate solution contains 0.75 mmol/l of the fluorogenic substrate (7-methoxycoumarin4-yl)acetyl-Pro-Leu-Gly-Leu-3-(2′,4′-dinitrophenyl)-L-2,3-diaminopropionyl-Ala-Arg-NH2 (Bachem, Heidelberg, Germany).

A further assay addresses T2, prolyl 4-hydroxylase (Gallus gallus, UniProt P16924).
T2 construct: from tissue; host or cells: 14-day-old chick embryos (homogenate)
T2 sequence (P16924 1-516): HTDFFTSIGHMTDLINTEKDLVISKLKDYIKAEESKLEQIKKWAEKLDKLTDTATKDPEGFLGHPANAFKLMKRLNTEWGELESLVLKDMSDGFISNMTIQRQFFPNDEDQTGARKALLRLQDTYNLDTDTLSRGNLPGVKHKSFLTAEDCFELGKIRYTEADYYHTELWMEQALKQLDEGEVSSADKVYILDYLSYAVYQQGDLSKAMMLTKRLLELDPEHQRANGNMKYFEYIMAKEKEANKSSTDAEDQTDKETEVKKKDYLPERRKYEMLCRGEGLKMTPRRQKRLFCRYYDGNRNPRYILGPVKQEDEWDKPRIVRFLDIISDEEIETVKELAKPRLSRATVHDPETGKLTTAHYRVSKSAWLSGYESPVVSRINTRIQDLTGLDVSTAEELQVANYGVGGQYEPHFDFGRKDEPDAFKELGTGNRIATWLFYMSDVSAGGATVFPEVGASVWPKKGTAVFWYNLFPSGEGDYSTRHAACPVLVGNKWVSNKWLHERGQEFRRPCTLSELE
T2 sequence (P09102 23-515 partner): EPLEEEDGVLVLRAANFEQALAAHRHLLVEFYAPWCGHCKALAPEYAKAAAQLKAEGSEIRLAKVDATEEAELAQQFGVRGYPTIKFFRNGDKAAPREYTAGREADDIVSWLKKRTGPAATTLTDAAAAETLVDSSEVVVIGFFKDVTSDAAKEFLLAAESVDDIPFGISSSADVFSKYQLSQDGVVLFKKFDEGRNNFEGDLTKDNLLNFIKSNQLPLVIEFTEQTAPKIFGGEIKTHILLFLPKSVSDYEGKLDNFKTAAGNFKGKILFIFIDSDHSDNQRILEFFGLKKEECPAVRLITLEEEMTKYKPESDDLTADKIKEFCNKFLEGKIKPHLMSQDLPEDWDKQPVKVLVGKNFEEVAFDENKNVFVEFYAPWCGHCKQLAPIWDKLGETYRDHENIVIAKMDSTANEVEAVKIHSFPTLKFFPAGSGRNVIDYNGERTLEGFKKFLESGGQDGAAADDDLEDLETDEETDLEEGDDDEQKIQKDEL
Nature of the assay: Prolyl hydroxylase inhibition (method of Majamaa, version of Kaule and Guenzler). To be noted: enzyme from 14-day-old chick embryos; concentrations of from 0.1 μM to 1 mM. The assay is classed as biochemical. The procedure:
Determining prolyl hydroxylase inhibition by the method of Majamaa Eur. J. Biochem. 138 (1984) 239-245 using the version of Kaule and guenzler Analytical Biochemistry 184 (1990) 291-297.
0.03 μg of prolyl 4-hydroxylase, which was prepared, by the method of Kedersa, Collagen Relat. Res. 1 (1981) 345-353, from homogenized 14-day-old chick embryos by ammonium sulfate precipitation and affinity chromatography on poly-L-proline-coupled Sepharose 4B and subsequent DEAE cellulose chromatography, was incubated, at 37° C. for one hour, in 0.05 ml of an 0.04 M tris-HCl solution (pH=7.5) containing 0.05 mM FeSO4, 0.1 mM 2-oxo-[5-C-14]glutarate (100,000 dpm), 20 μg (0.4 mg/ml) of (Pro-Pro-Gly)10 (Protein Research Foundation, Minoh, Osaka, Japan), 1 mM ascorbic acid, 0.4 mg of catalase/ml, 0.5 mM dithiothreitol and 2 mg of bovine serum albumin/ml, as well as the concentration of the inhibitor to be measured (the comparison experiment was carried out without any inhibitor). After that, 25 μl of a 20 mM succinate and 2-oxaglutarate solution, and also 25 μl of a 0.16 M 2,4-DNPH solution containing 30% HClO4, were added. After the mixture had been incubated at room temperature for a further 30 minutes, it was centrifuged at 3000 g for 5 minutes. The radioactivity of 100 μl of the supernatant was determined by liquid scintillation. Production of the [1-C-14] succinate was given in dpm. Unless otherwise indicated, all the chemicals and reagents were obtained from Sigma, Sigma D-82024 Taufkirchen.
The compounds tested in Table 3 were used at concentrations of from 0.1 μM to 1 mM. Where it was possible, the IC50 value was determined by graphic extrapolarization of the individual results. This value denotes the concentration of active inhibitors that led to 50% inhibition of the enzyme.

pIC50: −log10 of the molar value.

For `Cc1cc(CNC(=O)c2cc(C(=O)NCc3ccc(OCC(=O)OC(C)(C)C)cc3)ncn2)ccc1F` [Example 1, tert-Butyl [4-({[6-(4-fluoro-3-methylbenzylcarbamoyl)pyrimidine-4-carbonyl]amino}methyl)phenoxy]acetate], the pIC50 (in general, the IC50 on a negative log10 scale, so that one unit is a factor of ten) in assay [1] was 7.92.
Take `COc1cccc(CNC(=O)c2cc(C(=O)NCc3cccc(OCCN(C)C)c3)ncn2)c1` [Example 69]: the “Prolyl hydroxylase IC50” value on prolyl 4-hydroxylase is “No inhibition”.
For the molecule `O=C(O)c1cc(C(=O)O)ncn1` [Pyrimidine-4,6-dicarboxylic acid, reference compound], at prolyl 4-hydroxylase, the pIC50 is 5.92.
As for `Cc1ccc(CNC(=O)c2cc(C(=O)NCc3ccc(F)c(C)c3)ncn2)o1` [Example 84], the “Prolyl hydroxylase IC50” value on prolyl 4-hydroxylase is “No inhibition”.
Turning to `COc1cccc(CNC(=O)c2cc(C(=O)NCc3ccncc3)ncn2)c1` [Example 22], the “Prolyl hydroxylase IC50” value at prolyl 4-hydroxylase is recorded as “No inhibition”.
Regarding `Cc1cc(CNC(=O)c2cc(C(=O)NCc3cccs3)ncn2)ccc1F` [Example 7], at prolyl 4-hydroxylase, the “Prolyl hydroxylase IC50” value is “No inhibition”.
Take `Cc1cc(CNC(=O)c2cc(C(=O)NCc3sccc3C)ncn2)ccc1F` [Example 35]: in assay [1], the pIC50 is 6.70.
As to `COc1cccc(CNC(=O)c2cc(C(=O)NCc3ccc(C)s3)ncn2)c1` [Example 4], the pIC50 in assay [1] was 7.62.
On to `O=C(NCc1ccc(OCCN2CCOCC2)cc1)c1cc(C(=O)NCc2ccc(F)c(Cl)c2)ncn1` [Example 72], for which the “Prolyl hydroxylase IC50” value on prolyl 4-hydroxylase is recorded as “No inhibition”.
Turning to `COc1cc(CNC(=O)c2cc(C(=O)NCc3ccc(F)c(Br)c3)ncn2)ccn1` [Example 11], the pIC50 in assay [1] was 7.52.
Consider `COc1cccc(CNC(=O)c2cc(C(=O)NCc3nccs3)ncn2)c1` [Example 44], for which the pIC50 in assay [1] is 6.30.
`COc1cccc(CNC(=O)c2cc(C(=O)NCc3ccc(OCCN(C)C)cc3)ncn2)c1` [Example 70]: the “Prolyl hydroxylase IC50” value at prolyl 4-hydroxylase is “No inhibition”.
On to `COc1cccc(CNC(=O)c2cc(C(=O)NCc3ccc(OCCCN(C)C)cc3)ncn2)c1` [Example 71], for which the “Prolyl hydroxylase IC50” value at prolyl 4-hydroxylase is recorded as “No inhibition”.
As for `O=C(NCc1ccc(F)c(Cl)c1)c1cc(C(=O)NCc2cccs2)ncn1` [Example 83], on prolyl 4-hydroxylase, the “Prolyl hydroxylase IC50” value is given as “No inhibition”.
As to `O=C(NCCc1cccs1)c1cc(C(=O)NCc2ccc(F)c(Cl)c2)ncn1` [Example 28], the pIC50 in assay [1] was 7.00.
As for `COc1cc(CNC(=O)c2cc(C(=O)NCc3ccc(F)c(Cl)c3)ncn2)ccn1` [Example 20], in assay [1], the pIC50 is 7.30.
Turning to `Cc1cc(CNC(=O)c2cc(C(=O)NCc3ccc(OCC(=O)O)cc3)ncn2)ccc1F` [Example 2, [4-({[6-(4-Fluoro-3-methylbenzylcarbamoyl)pyrimidine-4-carbonyl]-amino}methyl)phenoxy]acetic acid], in assay [1], the pIC50 was 8.15.
For the molecule `O=C(NCc1ccncc1)c1cc(C(=O)NCc2ccc(F)c(Cl)c2)ncn1` [Example 14], the “Prolyl hydroxylase IC50” value at prolyl 4-hydroxylase was “No inhibition”.

These data come from US20050004111A1, “Selective MMP-13 inhibitors” (AVENTIS PHARMA DEUTSCHLAND GMBH, priority 2003, published 2005).
